IC50 data for 35 compounds are collected here from patent US6426331B1, “Inhibitors of STAT function” (Tularik Inc., priority 1998, dated 2002).

In the first assay the target is T1, STAT6 (Homo sapiens, UniProt P42226).
T1 sequence (P42226 1-847): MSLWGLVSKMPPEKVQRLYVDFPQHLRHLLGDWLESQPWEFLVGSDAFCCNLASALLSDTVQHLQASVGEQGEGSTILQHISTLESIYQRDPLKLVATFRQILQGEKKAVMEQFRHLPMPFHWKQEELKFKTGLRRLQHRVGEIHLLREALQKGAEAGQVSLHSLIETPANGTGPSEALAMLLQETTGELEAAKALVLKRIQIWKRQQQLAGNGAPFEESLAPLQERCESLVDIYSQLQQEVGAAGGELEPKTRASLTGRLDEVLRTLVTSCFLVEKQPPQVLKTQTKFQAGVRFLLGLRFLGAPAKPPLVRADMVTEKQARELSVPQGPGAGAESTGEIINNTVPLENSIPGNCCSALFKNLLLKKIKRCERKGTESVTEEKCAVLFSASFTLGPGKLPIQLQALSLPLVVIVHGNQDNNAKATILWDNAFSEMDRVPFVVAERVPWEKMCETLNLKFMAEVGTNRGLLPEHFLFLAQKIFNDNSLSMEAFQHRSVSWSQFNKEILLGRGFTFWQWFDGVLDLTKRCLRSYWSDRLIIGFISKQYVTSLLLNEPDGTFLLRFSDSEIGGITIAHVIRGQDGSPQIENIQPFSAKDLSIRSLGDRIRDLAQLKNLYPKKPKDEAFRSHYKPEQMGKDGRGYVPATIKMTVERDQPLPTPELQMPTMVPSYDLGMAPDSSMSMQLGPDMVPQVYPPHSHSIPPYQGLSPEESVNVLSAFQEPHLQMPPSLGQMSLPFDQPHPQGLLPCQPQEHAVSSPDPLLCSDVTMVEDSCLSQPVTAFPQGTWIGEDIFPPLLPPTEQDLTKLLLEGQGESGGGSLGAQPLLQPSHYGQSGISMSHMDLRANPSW
The assay is described as follows: Inhibition of STAT6 binding (duplex formation). The conditions noted are these: Table 1; inhibitors of STAT6 binding (duplex formation). As to the method:
The compounds of the present invention can be evaluated for STAT binding activity using methods such as those described in U.S. Pat. No. 6,207,391 (for STAT6 binding). Other assays for STAT binding can be found in, for example, U.S. Pat. Nos. 5,618,693, 5,639,858 and 5,756,700.
Using methods similar to those described in Examples 1 and 2, the compounds provided in Table 1 were prepared and evaluated as inhibitors of STAT6 binding (duplex formation). The assay is described in U.S. Pat. No. 6,207,391, filed Mar. 31, 1998. In each of the tables below: a + symbol indicates and IC50 of >100 μM; a ++ symbol indicates and IC50 of 50-100 μM; a +++ symbol indicates and IC50 of 1-50 μM; and a ++++ symbol indicates and IC50 of <1.0 μM.
As for `CC(C)(C)[C@H](NC(=O)/C=C/c1ccc(C(O)C(=O)O)cc1)C(=O)N1CCC[C@H]1C(=O)N(Cc1ccc(CN)cc1)c1ccc(C(N)=O)cc1` (some centres unmarked) [drawing 46: H, H, 4-CONH2,4-CH2NH2], the IC50 (commonly the point on the concentration scale where inhibition reaches its midpoint) lay within 1 to 50 µM.

`CC(C)(C)[C@H](NC(=O)/C=C/c1ccc(C(O)C(=O)O)cc1)C(=O)N1CCC[C@H]1C(=O)N(Cc1ccccc1)c1ccc(C(=O)Nc2ccccc2)cc1` (some centres unmarked) [drawing 46: H, H, 4-CONHPh, H] yielded an IC50 of more than 100 µM.

In the case of `CC(C)(C)[C@H](NC(=O)/C=C/c1ccc(C(O)C(=O)O)cc1)C(=O)N1C[C@H](N(Cc2ccccc2)Cc2ccccc2)C[C@H]1C(=O)N(Cc1ccccc1)c1ccc(C(N)=O)cc1` (some centres unmarked) [drawing 46: H, —N(Bn)2,4-CONH2, H], the IC50 is more than 100 µM.

`CN(C)[C@@H]1C[C@@H](C(=O)N(Cc2ccccc2)c2ccc(C(N)=O)cc2)N(C(=O)[C@@H](NC(=O)/C=C/c2ccc(C(O)C(=O)O)cc2)C(C)(C)C)C1` (some centres unmarked) [drawing 46: H, —N(CH3)2,4-CONH2, H] yielded an IC50 of 50 to 100 µM.

The compound `CC(C)(C)[C@H](NC(=O)/C=C/c1ccc(C(O)C(=O)O)cc1)C(=O)N1C[C@H](N)C[C@H]1C(=O)N(Cc1ccccc1)c1ccc(C(N)=O)cc1` (some centres unmarked) [drawing 46: H, —NH2,4-CONH2, H] had an IC50 of 1 to 50 µM.

`Cc1ccc(S(=O)(=O)N[C@@H]2C[C@@H](C(=O)N(Cc3ccccc3)c3ccc(C(N)=O)cc3)N(C(=O)[C@@H](NC(=O)/C=C/c3ccc(C(O)C(=O)O)cc3)C(C)(C)C)C2)cc1` (some centres unmarked) [drawing 46: H, —NH-Tosyl, 4-CONH2, H] showed an IC50 of more than 100 µM.

In turn, `CC(=O)N[C@@H]1C[C@@H](C(=O)N(Cc2ccccc2)c2ccc(C(N)=O)cc2)N(C(=O)[C@@H](NC(=O)/C=C/c2ccc(C(O)C(=O)O)cc2)C(C)(C)C)C1` (some centres unmarked) [drawing 46: H, —NHAc, 4-CONH2, H] registered an IC50 of 1 to 50 µM.

As to `CC(C)(C)[C@H](NC(=O)/C=C/c1ccc(C(O)C(=O)O)cc1)C(=O)N1C[C@H](NC(=O)c2ccccc2)C[C@H]1C(=O)N(Cc1ccccc1)c1ccc(C(N)=O)cc1` (some centres unmarked) [drawing 46: H, —NHBz, 4-CONH2, H], the IC50 fell in the range of 1 to 50 µM.

In turn, `CC(C)(C)[C@H](NC(=O)/C=C/c1ccc(C(O)C(=O)O)cc1)C(=O)N1C[C@H](NC(=O)OCc2ccccc2)C[C@H]1C(=O)N(Cc1ccccc1)c1ccc(C(N)=O)cc1` (some centres unmarked) [drawing 46: H, —NHCO2Bn, 4-CONH2, H] displayed an IC50 of 1 to 50 µM.

In turn, `CC(C)C(=O)N[C@@H]1C[C@@H](C(=O)N(Cc2ccccc2)c2ccc(C(N)=O)cc2)N(C(=O)[C@@H](NC(=O)/C=C/c2ccc(C(O)C(=O)O)cc2)C(C)(C)C)C1` (some centres unmarked) [drawing 46: H, —NHCOCH(CH3)2, 4-CONH2, H] gave an IC50 of 1 to 50 µM.

`CC(C)(C)[C@H](NC(=O)/C=C/c1ccc(C(O)C(=O)O)cc1)C(=O)N1C[C@H](NS(C)(=O)=O)C[C@H]1C(=O)N(Cc1ccccc1)c1ccc(C(N)=O)cc1` (some centres unmarked) [drawing 46: H, —NHSO2CH3,4-CONH2, H]: the IC50 is 1 to 50 µM.

Take `CC(=O)N[C@H]1C[C@@H](C(=O)N(Cc2ccccc2)c2ccc(C(N)=O)cc2)N(C(=O)[C@@H](NC(=O)/C=C/c2ccc(C(O)C(=O)O)cc2)C(C)(C)C)C1` (some centres unmarked) [drawing 46: —NHAC, H, 4-CONH2, H]: the IC50 was in the range of 1 to 50 µM.

Still in this assay, the particulars now being: Table 2; STAT6 binding.
For `CC(C)(C)[C@H](NC(=O)/C=C/c1ccc(CP(=O)(O)O)cc1)C(=O)N1CCC[C@H]1C(=O)N(c1ccccc1)c1ccc(C(N)=O)cc1`, the IC50 lay in the range of 1 to 50 µM.

`CC(C)(C)[C@H](NC(=O)/C=C/c1cccc(CP(=O)(O)O)c1)C(=O)N1CCC[C@H]1C(=O)N(c1ccccc1)c1ccc(C(N)=O)cc1` returned an IC50 of more than 100 µM.

Turning to `CC(C)(C)[C@H](NC(=O)/C=C/c1ccc(C(O)P(=O)(O)O)cc1)C(=O)N1CCC[C@H]1C(=O)N(c1ccccc1)c1ccc(C(N)=O)cc1` (some centres unmarked), the IC50 was in the range of 1 to 50 µM.

`CC(C)(C)[C@H](NC(=O)/C=C/c1ccc(C(F)(F)P(=O)(O)O)cc1)C(=O)N1CCC[C@H]1C(=O)N(c1ccccc1)c1ccc(C(N)=O)cc1` came in with an IC50 of less than 1 µM.

Consider `CC(C)(C)[C@H](NC(=O)/C=C/c1ccc(P(=O)(O)O)cc1)C(=O)N1CCC[C@H]1C(=O)N(c1ccccc1)c1ccc(C(N)=O)cc1`, for which the IC50 is 1 to 50 µM.

In turn, `COc1cc(/C=C/C(=O)N[C@H](C(=O)N2CCC[C@H]2C(=O)N(c2ccccc2)c2ccc(C(N)=O)cc2)C(C)(C)C)ccc1P(=O)(O)O` displayed an IC50 of 1 to 50 µM.

`CC(C)(C)[C@H](NC(=O)/C=C/c1ccc(P(=O)(O)O)c(O)c1)C(=O)N1CCC[C@H]1C(=O)N(c1ccccc1)c1ccc(C(N)=O)cc1` registered an IC50 of 1 to 50 µM.

Consider `CC(C)(C)[C@H](NC(=O)/C=C/c1ccc(C(=O)O)cc1)C(=O)N1CCC[C@H]1C(=O)N(c1ccccc1)c1ccc(C(N)=O)cc1`, for which the IC50 was more than 100 µM.

With `CC(C)(C)[C@H](NC(=O)/C=C/c1cccc(C(=O)O)c1)C(=O)N1CCC[C@H]1C(=O)N(c1ccccc1)c1ccc(C(N)=O)cc1`, the IC50 was more than 100 µM.

The compound `CC(C)(C)[C@H](NC(=O)/C=C/c1ccc(C(=O)O)c(C(=O)O)c1)C(=O)N1CCC[C@H]1C(=O)N(c1ccccc1)c1ccc(C(N)=O)cc1` showed an IC50 of 1 to 50 µM.

In turn, `CC(C)(C)[C@H](NC(=O)/C=C/c1cccc(CC(=O)O)c1)C(=O)N1CCC[C@H]1C(=O)N(c1ccccc1)c1ccc(C(N)=O)cc1` yielded an IC50 of more than 100 µM.

Compound `CC(C)(C)[C@H](NC(=O)/C=C/c1ccc(CC(=O)O)cc1)C(=O)N1CCC[C@H]1C(=O)N(c1ccccc1)c1ccc(C(N)=O)cc1` yielded an IC50 of more than 100 µM.

`CC(C)(C)[C@H](NC(=O)/C=C/c1ccc(OCC(=O)O)cc1)C(=O)N1CCC[C@H]1C(=O)N(c1ccccc1)c1ccc(C(N)=O)cc1`: the concentration for half-maximal inhibition (IC50) was more than 100 µM.

`CC(C)(C)[C@H](NC(=O)/C=C/c1ccc(OC(F)(C(=O)O)C(=O)O)cc1)C(=O)N1CCC[C@H]1C(=O)N(c1ccccc1)c1ccc(C(N)=O)cc1` yielded a half-inhibitory concentration (IC50) of 1 to 50 µM.

Take `CC(C)(C)[C@H](NC(=O)/C=C/c1ccc(C(=O)O)cn1)C(=O)N1CCC[C@H]1C(=O)N(c1ccccc1)c1ccc(C(N)=O)cc1`: the IC50 is more than 100 µM.

`CC(C)(C)[C@H](NC(=O)/C=C/c1cccc(C(=O)O)n1)C(=O)N1CCC[C@H]1C(=O)N(c1ccccc1)c1ccc(C(N)=O)cc1` registered an IC50 of more than 100 µM.

The same assay, now with this note: Table 3; STAT6 binding.
Compound `Cc1ccc(N(C(=O)C2CCCN2C(=O)C(NC(=O)C=Cc2ccc(OP(=O)(O)O)cc2)C(C)(C)C)c2ccccc2)cc1` (centres unmarked) [drawing 69: CH3] returned an IC50 of less than 1 µM.

Compound `COC(=O)c1ccc(N(C(=O)C2CCCN2C(=O)C(NC(=O)C=Cc2ccc(OP(=O)(O)O)cc2)C(C)(C)C)c2ccccc2)cc1` (centres unmarked) [drawing 69: CO2CH3] showed an IC50 of less than 1 µM.

`CC(C)(C)C(NC(=O)C=Cc1ccc(OP(=O)(O)O)cc1)C(=O)N1CCCC1C(=O)N(c1ccccc1)c1ccc(C(=O)O)cc1` (centres unmarked) [drawing 69: CO2H]: the IC50 lay within 1 to 50 µM.

In the case of `CC(C)(C)C(NC(=O)C=Cc1ccc(OP(=O)(O)O)cc1)C(=O)N1CCCC1C(=O)N(c1ccccc1)c1ccc(C(N)=O)cc1` (centres unmarked) [drawing 69: CONH2], the IC50 was less than 1 µM.

Compound `CC(C)(C)C(NC(=O)C=Cc1ccc(OP(=O)(O)O)cc1)C(=O)N1CCCC1C(=O)N(c1ccccc1)c1ccc(Cl)cc1` (centres unmarked) [drawing 69: Cl] had an IC50 of less than 1 µM.

`CC(C)(C)C(NC(=O)C=Cc1ccc(OP(=O)(O)O)cc1)C(=O)N1CCCC1C(=O)N(c1ccccc1)c1ccccc1` (centres unmarked) [drawing 69: H] had an IC50 of less than 1 µM.

Consider `CC(C)(C)C(NC(=O)C=Cc1ccc(OP(=O)(O)O)cc1)C(=O)N1CCCC1C(=O)N(c1ccccc1)c1ccc(I)cc1` (centres unmarked) [drawing 69: I], for which the IC50 is less than 1 µM.
